Laboratory results as given in patent US12673964B2, “Crystal of thyroid hormone B receptor agonist, process for preparing the same and use thereof” (GANNEX PHARMA CO., LTD., priority 2020, dated 2026).

Assays:
[1] = Hygroscopicity test of crystal form I (dynamic moisture adsorption instrument, DVS); assay type: physicochemical; conditions: for Weight gain percentage at 80% relative humidity: DVS, about 28 mg of crystal
Procedure: About 28 mg of the crystal obtained in Example 1 was taken. The hygroscopicity of the crystal was determined with dynamic moisture adsorption instrument in accordance with the above conditions. The weight gain of crystal form I was within 0.2% at 80% relative humidity.

[2] = Particle size test of crystal form I (micrometer particle size analyzer MS3000, dry method); assay type: physicochemical; conditions: particle size analysis
Source text: The particle size conditions of the crystal form I of the compound of formula I used in the present disclosure are: name/model of detection instrument: micrometer particle size analyzer/MS3000; test method: dry method; sample injection rate: 50%; air pressure: 2.5 bar; slit width: 2.0 mm; refractive index: 1.52; absorption rate: 0.1; shade degree: 0.5% to 6%; background measurement time: 10 s; and sample measurement time: 10 s. The crystal obtained in Example 1 was subject to a particle size test in accordance with the above conditions.

With Cc1cc(OC[P@@]2(=O)OCC[C@@H](c3cccc(Cl)c3)O2)cc(C)c1Cc1ccc(O)c(C(C)C)c1 [Example 1] the “Weight gain percentage at 80% relative humidity” value [1] was 0.1213%, the “Weight gain percentage at 80% relative humidity” value ([1]; listed as crystal form I) was no more than 0.2% and the Hygroscopicity class ([1]; guidance principle of drug hygroscopicity, Appendix XIXJ of the Chinese Pharmacopoeia 2015) was “no or nearly no hygroscopicity”. The “Specific Area” value [2] was 807.1 m^2/kg, the particle size Dv10 ([2]; Dv 10) was 6.41 µm and the particle size Dv50 ([2]; Dv 50) was 20.3 µm. The particle size Dv90 ([2]; Dv 90) was 48.2 µm and the particle size Dv95 ([2]; Dv 95) was 59.1 µm.
